{"source": "patent US20210205253A1", "about": "“Use Of Stearic Acid For Preventing Or Treating Pulmonary Fibrosis” (THE ASAN FOUNDATION, priority 2018, published 2021)", "key": {"[1]": {"test_system": "pulmonary fibrosis induced by bleomycin", "assay": "Stearic acid in bleomycin-induced pulmonary fibrosis animal model", "format": "in vivo, mice (C57BL6J)", "text": "Based on the results of Example 2-2, the present inventors attempted to verify the anti-fibrotic effect of stearic acid in an animal model in which pulmonary fibrosis was induced by bleomycin. For this purpose, 6-week-old mice (C57BL6J) were classified into the following 4 groups of 4 or 5 mice, respectively: groups treated with (1) intratracheal saline+vehicle, (2) intratracheal saline+stearic acid, (3) intratracheal 4 units/kg bleomycin+vehicle, and (4) intratracheal bleomycin+stearic acid. Subsequently, mice were anesthetized with 50 mg/kg […] and 5 mg/kg Rompun, followed by infusion of bleomycin and saline into the trachea. The mice were treated with 3 mg/kg stearic acid using oral gavage (zonde) three times a week for 3 weeks. Thereafter, on day 21, lung tissues and blood were collected from the mice and used for the study."}, "[2]": {"test_system": "p-Smad2/3 and Smad7 in MRC-5 cells", "assay": "p-Smad2/3 and Smad7 expression in fibroblasts", "format": "cell-based, human", "conditions": "40 μM stearic acid pre-treatment 16 h, TGF-β1 1 h", "procedure": "(§1) The present inventors pre-treated a human pulmonary fibroblast cell line MRC-5 with 40 μM stearic acid for 16 hours, treated the MRC-5 cells with TGF-β1 for 1 hour, and then examined the expression levels of p-Smad2/3 and Smad7 in order to elucidate the anti-fibrotic mechanism of stearic acid in human pulmonary fibroblasts (FIGS. 12A and 12B). Further, to investigate the effect of stearic acid on the production of reactive oxygen species (ROS), MRC-5 cells were pre-treated with 40 μM stearic acid for 16 hours, and cells treated with TGF-β1 for 1 hour were stained with DCF-DA and analyzed by FACS (FIG. 12C). Furthermore, MRC-5 cells were pre-treated with 5 mM N-acetylcysteine (NAC), which is an antioxidant, for 1 hour and treated with TGF-β1 for 1 hour, and then the expression of p-Smad2/3 was examined (FIG. 12D)."}, "[3]": {"test_system": "reactive oxygen species in MRC-5 cells", "assay": "ROS measurement (DCF-DA, FACS)", "format": "cell-based, human", "conditions": "40 μM stearic acid pre-treatment 16 h, TGF-β1 1 h", "procedure": "as §1"}, "[4]": {"test_system": "human primary fibroblasts", "assay": "Combined treatment of stearic acid and pirfenidone in human primary fibroblasts (western blotting)", "format": "cell-based", "conditions": "TGF-β 5 ng/ml; 40 μM stearic acid single treatment (Lane 4)", "procedure": "(§2) The primary fibroblasts derived from the patients with idiopathic pulmonary fibrosis used in the following experiment were cultured for 7 to 10 days while cutting the lung tissue of the patient into 1×1 mm^2 slices, and then periodically exchanging a cell culture solution (Eagle's minimal essential medium; EMEM) supplemented with 100 unit/ml penicillin, 100 μg/ml streptomycin, and 10% fetal bovine serum (FBS) under conditions of 5% CO2 and 37° C., and cells of passage 2 to 5 were used for the experiment.\nTo verify the anti-fibrotic effect by the combined treatment of stearic acid and pirfenidone, which is a therapeutic agent for idiopathic pulmonary fibrosis, the human primary fibroblasts isolated by the above-described method were respectively or simultaneously treated with 5 ng/ml TGF-β, 40 μM stearic acid, and 400 or 800 μM pirfenidone for 24 hours, and then the expression levels of collagen type 1 (COL-1) and α-SMA, which are markers of fibrosis, were measured by western blotting, and the inhibitory rate was quantitatively analyzed by correcting the amount of each protein with the amount of actin, which is an intracellular control protein."}, "[5]": {"test_system": "human primary fibroblasts", "assay": "Combined treatment of stearic acid and nintedanib in human primary fibroblasts", "format": "cell-based", "conditions": "40 μM stearic acid single treatment versus TGF single treatment", "procedure": "as §2, with “experiment. To verify the anti-fibrotic effect by the combined treatment of stearic acid and nintedanib, which is another therapeutic agent for idiopathic pulmonary fibrosis, human primary fibroblasts were respectively or simultaneously treated with 5 ng/ml TGF-β, 40 μM stearic acid, and 1.5 or 2 μM nintedanib for 24 hours, and then the expression levels of collagen type 1 (COL-1) and α-SMA, which are markers of fibrosis, were measured, respectively.” for “experiment.”"}, "[6]": {"conditions": "day 21, stearic acid 3 mg/kg oral"}}, "data": [{"smiles": "CCCCCCCCCCCCCCCCCC(=O)O", "note": "[stearic acid]", "values": [{"measurement": "reduction in body weight due to bleomycin", "setting": "[1]; day 7, stearic acid 3 mg/kg oral gavage three times a week", "result": "significantly inhibited"}, {"measurement": "expression of p-Smad2/3 in lung tissues", "setting": "[1]; [6]", "result": "inhibition of an increase in expression of p-Smad2/3"}, {"measurement": "expression of α-SMA in lung tissues", "setting": "[1]; [6]", "result": "inhibiting an increase in expression of α-SMA"}, {"measurement": "histopathological characteristics of pulmonary fibrosis (H&E)", "setting": "[1]; day 21, stearic acid 3 mg/kg oral, 3 weeks", "result": "remarkably reduced"}, {"measurement": "accumulation of hydroxyproline", "setting": "[1]; lung tissue, day 21, stearic acid 3 mg/kg oral", "result": "inhibiting the accumulation of hydroxyproline"}, {"measurement": "blood level of TGF-β1", "setting": "[1]; serum, day 21, stearic acid 3 mg/kg oral", "result": "inhibiting an increase in the blood level of TGF-β1"}, {"measurement": "expression of Smad 7 reduced by TGF-β1", "setting": "[2]", "result": "restored"}, {"measurement": "expression of p-Smad2/3 induced by TGF-β1", "setting": "[2]", "result": "inhibited"}, {"measurement": "level of reactive oxygen species induced by TGF-β1", "setting": "[3]", "result": "remarkably reduced"}, {"measurement": "change in COL-1", "setting": "[4]", "result": "insignificant"}, {"measurement": "α-SMA", "setting": "[4]", "result": "reduced"}, {"measurement": "expression level of COL-1", "setting": "[5]", "result": "no change"}, {"measurement": "expression level of α-SMA", "setting": "[5]", "result": "no change"}]}]}
